Measured values published in patent EP4591884A1, “LIPID COMPOUND FOR NUCLEIC ACID DELIVERY, AND RELATED USE AND MEDICAMENT COMPRISING SAME” (Beijing Baishihekang Pharmaceutical Technology (Bsjpharma) …, priority 2022, dated 2024).

Legend:
Assay in all cases: in vitro small nucleic acid delivery by lipid-nucleic acid mixture, cell uptake by flow cytometry
Type in all cases: cell-based, human
Settings in all cases: lipid 1.25 ug/mL, fluorescently labeled PGY-ssRNA-26, final 100 nM, 9 h incubation, flow cytometry fluorescence
293T cells = test system: 293T cells
Method: (§1) Culture the human pancreatic acinar epithelial cancer cell line HPAC, human large cell lung cancer cell line H460, and human embryonic kidney cell line HEK293T (purchased from the Cell Resource Center, Institute of Basic Medicine, Chinese Academy of Medical Sciences) used in the experiments in a 37°C, 5%CO2 incubator. Culture the HPAC cells in DMEM/F12 medium, the H460 cells in RPMI-1640 medium, and the 293T cells in DMEM medium containing 10% fetal bovine serum and 1% antibiotics (penicillin 100 U/mL & streptomycin […]). Culture the cells to the logarithmic growth phase with a cell density of 6 × 10^5/1 mL medium/well; divide the cells into 12-well plates (1 mL medium/well), and incubate at 37°C overnight (12 h), and then conduct subsequent experiments.
(§2) Add 5 µL of nucleic acid and 95 µL of DEPC-treated water to a 2 mL glass tube, mix homogeneously, add a certain amount of lipid monomer, mix thoroughly, heat in a 90°C water bath for 15 min, and then cool naturally to obtain a mixture of nucleic acid and lipid.
(§3) 3. Detection of cell uptake of nucleic acids delivered by lipids inside cells by means of flow cytometry (CFlow) • 1) Main experimental instruments and equipment: 10 cm cell culture dishes, 12-well cell culture plates, pipettes, transfer tubes, optical microscope, flow cytometer CytoFLEX instrument (purchased from Beckman, USA) • 2) Main experimental reagents: Model establishment and transfection: artificially synthesized lipid monomers and nucleic acids as shown in the table • 3) Culture the human pancreatic acinar epithelial cancer cell line HPAC cells, human large cell lung cancer cell line H460 cells, and human embryonic kidney cell line HEK293T cells used in the experiment to the logarithmic growth phase, and then divide them into 12-well plates at a cell density of 6×10^5/mL culture medium/well; incubate the 12-well plates at 37°C overnight (12 h), and then conduct subsequent experiments. • 4) The experimental groups are as follows: • a) Blank group: refers to untreated cells, and this group serves as a blank control group. • b) Free uptake group: directly add 5 µL of fluorescently labeled nucleic acid solution (stock concentration 20 µM), and this group serves as the negative control group. • c) Lipid-nucleic acid mixture treatment group: add the mixture of lipids and fluorescently labeled nucleic acids prepared in step 2 to the cells, and mix homogeneously. The final concentration of nucleic acids is 100 nM. • 5) After incubating with cells for 9 h, wash the cells three times with PBS, resuspend the cells with PBS (self-prepared), and use a flow cytometer CytoFLEX instrument (purchased from Beckman, USA) to detect the fluorescence intensity of the cells in the sample wells.

H460 cells = test system: H460 cells
Method: as §1, §2, §3

HPAC cells = test system: HPAC cells
Method: as §1, §2, §3

CCCCCCCCCCCCCCCCCCCCCCCCCCCCCCCC[C@@H](O)[C@@H](N)CO [Sphingosine (d35:0), (2S,3R)-2-aminopentatriacontane-1,3-diol]
Lipid delivery group (1.25 ug/mL) (293T cells): 43.03%
Lipid delivery group (1.25 ug/mL) (H460 cells): 69.95%
Lipid delivery group (1.25 ug/mL) (HPAC cells): 51.46%

CCCCCCCCCCCCCCCCCCCCCCCCCCCCCC[C@@H](O)[C@@H](N)CO [Sphingosine (d33:0), (2S,3R)-2-aminotritriacontane-1,3-diol]
Lipid delivery group (1.25 ug/mL) (293T cells): 61.39%
Lipid delivery group (1.25 ug/mL) (H460 cells): 72.21%
Lipid delivery group (1.25 ug/mL) (HPAC cells): 2.48%

CCCCCCCCCCCCCCCCCCC[C@@H](O)[C@@H](N)CO [Sphingosine (d22:0), (2S,3R)-2-aminodocosane-1,3-diol]
Lipid delivery group (1.25 ug/mL) (293T cells): 22.99%
Lipid delivery group (1.25 ug/mL) (H460 cells): 24.32%
Lipid delivery group (1.25 ug/mL) (HPAC cells): 39.08%

CCCCCCCCCCCCCCCCCCCCCCCCCCCC/C=C/[C@@H](O)[C@@H](N)CO [Sphingosine (d33:1), (2S,3R,E)-2-aminotritriacont-4-ene-1,3-diol]
Lipid delivery group (1.25 ug/mL) (293T cells): 40.07%
Lipid delivery group (1.25 ug/mL) (H460 cells): 67.01%
Lipid delivery group (1.25 ug/mL) (HPAC cells): 45.88%

CCCCCCCCCCCCCCCCCCCCCCCCCCCCCCC/C=C/[C@@H](O)[C@@H](N)CO [Sphingosine (d36:1), (2S,3R,E)-2-aminohexatriacont-4-ene-1,3-diol]
Lipid delivery group (1.25 ug/mL) (293T cells): 25.23%
Lipid delivery group (1.25 ug/mL) (H460 cells): 48.37%
Lipid delivery group (1.25 ug/mL) (HPAC cells): 48.77%

CCCCCCCCCCCCCCCCCCCCC[C@@H](O)[C@@H](N)CO [Sphingosine (d24:0), (2S,3R)-2-aminotetracosane-1,3-diol]
Lipid delivery group (1.25 ug/mL) (293T cells): 96.77%
Lipid delivery group (1.25 ug/mL) (H460 cells): 98.13%
Lipid delivery group (1.25 ug/mL) (HPAC cells): 96.61%

CCCCCCCCCCCCCCCCCCCCCCCCCCCCCC/C=C/[C@@H](O)[C@@H](N)CO [Sphingosine (d35:1), (2S,3R,E)-2-aminopentatriacont-4-ene-1,3-diol]
Lipid delivery group (1.25 ug/mL) (293T cells): 50.79%
Lipid delivery group (1.25 ug/mL) (H460 cells): 64.66%
Lipid delivery group (1.25 ug/mL) (HPAC cells): 53.75%

CCCCCCCCCCCCCCCCCCCCCCC[C@@H](O)[C@@H](N)CO [Sphingosine (d26:0), (2S,3R)-2-aminohexacosane-1,3-diol]
Lipid delivery group (1.25 ug/mL) (293T cells): 95.55%
Lipid delivery group (1.25 ug/mL) (H460 cells): 95.2%
Lipid delivery group (1.25 ug/mL) (HPAC cells): 97.75%

CCCCCCCCCCCCCCCCCCCCCCCCCCC[C@@H](O)[C@@H](N)CO [Sphingosine (d30:0), (2S,3R)-2-aminotriacontane-1,3-diol]
Lipid delivery group (1.25 ug/mL) (293T cells): 83.38%
Lipid delivery group (1.25 ug/mL) (H460 cells): 78.84%
Lipid delivery group (1.25 ug/mL) (HPAC cells): 93.63%

CCCCCCCCCCCCCCCCCCCCCCCCCC/C=C/[C@@H](O)[C@@H](N)CO [Sphingosine (d31:1), (2S,3R,E)-2-aminohentriacont-4-ene-1,3-diol]
Lipid delivery group (1.25 ug/mL) (293T cells): 75.77%
Lipid delivery group (1.25 ug/mL) (H460 cells): 82.66%
Lipid delivery group (1.25 ug/mL) (HPAC cells): 60.61%

CCCCCCCCCCCCCCCCCCCCCCCCC/C=C/[C@@H](O)[C@@H](N)CO [Sphingosine (d30:1), (2S,3R,E)-2-aminotriacont-4-ene-1,3-diol]
Lipid delivery group (1.25 ug/mL) (293T cells): 95.79%
Lipid delivery group (1.25 ug/mL) (H460 cells): 54.83%
Lipid delivery group (1.25 ug/mL) (HPAC cells): 69.34%

CCCCCCCCCCCCCCCCCCCCCCCC[C@@H](O)[C@@H](N)CO [Sphingosine (d27:0), (2S,3R)-2-aminoheptacosane-1,3-diol]
Lipid delivery group (1.25 ug/mL) (293T cells): 91.06%
Lipid delivery group (1.25 ug/mL) (H460 cells): 97.57%
Lipid delivery group (1.25 ug/mL) (HPAC cells): 97.35%

CCCCCCCCCCCCCCCCCCCCCCCCCCCCCCC[C@@H](O)[C@@H](N)CO [Sphingosine (d34:0), (2S,3R)-2-aminotetratriacontane-1,3-diol]
Lipid delivery group (1.25 ug/mL) (293T cells): 5%
Lipid delivery group (1.25 ug/mL) (H460 cells): 24.56%
Lipid delivery group (1.25 ug/mL) (HPAC cells): 0.55%

CCCCCCCCCCCCCCCCCCCCCCCCCCCCC[C@@H](O)[C@@H](N)CO [Sphingosine (d32:0), (2S,3R)-2-aminodotriacontane-1,3-diol]
Lipid delivery group (1.25 ug/mL) (293T cells): 34.02%
Lipid delivery group (1.25 ug/mL) (H460 cells): 46.19%
Lipid delivery group (1.25 ug/mL) (HPAC cells): 70.16%

CCCCCCCCCCCCCCCCCCCCCCCCC[C@@H](O)[C@@H](N)CO [Sphingosine (d28:0), (2S,3R)-2-aminooctacosane-1,3-diol]
Lipid delivery group (1.25 ug/mL) (293T cells): 96.93%
Lipid delivery group (1.25 ug/mL) (H460 cells): 98.52%
Lipid delivery group (1.25 ug/mL) (HPAC cells): 94.40%

CCCCCCCCCCCCCCCCCC/C=C/[C@@H](O)[C@@H](N)CO [Sphingosine (d23:1), (2S,3R,E)-2-aminotricos-4-ene-1,3-diol]
Lipid delivery group (1.25 ug/mL) (293T cells): 34.51%
Lipid delivery group (1.25 ug/mL) (H460 cells): 44.11%
Lipid delivery group (1.25 ug/mL) (HPAC cells): 7.93%

CCCCCCCCCCCCCCCCCCCCCCCCCC[C@@H](O)[C@@H](N)CO [Sphingosine (d29:0), (2S,3R)-2-aminononacosane-1,3-diol]
Lipid delivery group (1.25 ug/mL) (293T cells): 72.18%
Lipid delivery group (1.25 ug/mL) (H460 cells): 65.81%
Lipid delivery group (1.25 ug/mL) (HPAC cells): 83.57%

CCCCCCCCCCCCCCCCCCCCCCCCCCCCC/C=C/[C@@H](O)[C@@H](N)CO [Sphingosine (d34:1), (2S,3R,E)-2-aminotetratriacont-4-ene-1,3-diol]
Lipid delivery group (1.25 ug/mL) (293T cells): 38.31%
Lipid delivery group (1.25 ug/mL) (H460 cells): 66.64%
Lipid delivery group (1.25 ug/mL) (HPAC cells): 2.95%

CCCCCCCCCCCCCCCCCCCCCC/C=C/[C@@H](O)[C@@H](N)CO [Sphingosine (d27:1), (2S,3R,E)-2-aminoheptacos-4-ene-1,3-diol]
Lipid delivery group (1.25 ug/mL) (293T cells): 92.77%
Lipid delivery group (1.25 ug/mL) (H460 cells): 95.74%
Lipid delivery group (1.25 ug/mL) (HPAC cells): 99.42%

CCCCCCCCCCCCCCCCCCCCCCCC/C=C/[C@@H](O)[C@@H](N)CO [Sphingosine (d29:1), (2S,3R,E)-2-aminononacos-4-ene-1,3-diol]
Lipid delivery group (1.25 ug/mL) (293T cells): 32.74%
Lipid delivery group (1.25 ug/mL) (H460 cells): 62.37%
Lipid delivery group (1.25 ug/mL) (HPAC cells): 23.36%

CCCCCCCCCCCCCCCCCCCCCCC/C=C/[C@@H](O)[C@@H](N)CO [Sphingosine (d28:1), (2S,3R,E)-2-aminooctacos-4-ene-1,3-diol]
Lipid delivery group (1.25 ug/mL) (293T cells): 86.5%
Lipid delivery group (1.25 ug/mL) (H460 cells): 84.15%
Lipid delivery group (1.25 ug/mL) (HPAC cells): 96.66%

CCCCCCCCCCCCCCCCCCCCC/C=C/[C@@H](O)[C@@H](N)CO [Sphingosine (d26:1), (2S,3R,E)-2-aminohexacos-4-ene-1,3-diol]
Lipid delivery group (1.25 ug/mL) (293T cells): 87.97%
Lipid delivery group (1.25 ug/mL) (H460 cells): 85.87%
Lipid delivery group (1.25 ug/mL) (HPAC cells): 96.03%

CCCCCCCCCCCCCCCCCCC/C=C/[C@@H](O)[C@@H](N)CO [Sphingosine (d24:1), (2S,3R,E)-2-aminotetracos-4-ene-1,3-diol]
Lipid delivery group (1.25 ug/mL) (293T cells): 63.97%
Lipid delivery group (1.25 ug/mL) (H460 cells): 79.66%
Lipid delivery group (1.25 ug/mL) (HPAC cells): 16.65%

CCCCCCCCCCCCCCCCCCCC[C@@H](O)[C@@H](N)CO [Sphingosine (d23:0), (2S,3R)-2-aminotricosane-1,3-diol]
Lipid delivery group (1.25 ug/mL) (293T cells): 98.16%
Lipid delivery group (1.25 ug/mL) (H460 cells): 98.65%
Lipid delivery group (1.25 ug/mL) (HPAC cells): 78.91%

CCCCCCCCCCCCCCCCCCCCCC[C@@H](O)[C@@H](N)CO [Sphingosine (d25:0), (2S,3R)-2-aminopentacosane-1,3-diol]
Lipid delivery group (1.25 ug/mL) (293T cells): 97.76%
Lipid delivery group (1.25 ug/mL) (H460 cells): 99.26%
Lipid delivery group (1.25 ug/mL) (HPAC cells): 96.17%

CCCCCCCCCCCCCCCCCCCCCCCCCCCC[C@@H](O)[C@@H](N)CO [Sphingosine (d31:0), (2S,3R)-2-aminohentriacontane-1,3-diol]
Lipid delivery group (1.25 ug/mL) (293T cells): 97.4%
Lipid delivery group (1.25 ug/mL) (H460 cells): 68.16%
Lipid delivery group (1.25 ug/mL) (HPAC cells): 70.5%

CCCCCCCCCCCCCCCCCCCCCCCCCCCCCCCCC[C@@H](O)[C@@H](N)CO [Sphingosine (d36:0), (2S,3R)-2-aminohexatriacontane-1,3-diol]
Lipid delivery group (1.25 ug/mL) (293T cells): 40.66%
Lipid delivery group (1.25 ug/mL) (H460 cells): 62.71%
Lipid delivery group (1.25 ug/mL) (HPAC cells): 58.22%

CCCCCCCCCCCCCCCCCCCCCCCCCCC/C=C/[C@@H](O)[C@@H](N)CO [Sphingosine (d32:1), (2S,3R,E)-2-aminodotriacont-4-ene-1,3-diol]
Lipid delivery group (1.25 ug/mL) (293T cells): 86.77%
Lipid delivery group (1.25 ug/mL) (H460 cells): 62.18%
Lipid delivery group (1.25 ug/mL) (HPAC cells): 87.38%

CCCCCCCCCCCCCCCCCCCC/C=C/[C@@H](O)[C@@H](N)CO [Sphingosine (d25:1), (2S,3R,E)-2-aminopentacos-4-ene-1,3-diol]
Lipid delivery group (1.25 ug/mL) (293T cells): 78.12%
Lipid delivery group (1.25 ug/mL) (H460 cells): 78.43%
Lipid delivery group (1.25 ug/mL) (HPAC cells): 89.70%
